Assays:
[1] = test system: cardiomyocyte cell line HL-1; assay: Proliferation of cardiomyocyte cell line HL-1, BrdU-ELISA; assay type: cell-based; conditions: same concentrations as on HCFs, 24 h, DMSO control
Method: HCFs and HL-1 cells were treated with Bufalin, Gitoxigenin, Lycorine and Anisomycin for 24 h with the same concentrations as indicated in Example 1 and proliferation of HCFs and cardiomyocyte cell line HL-1 cells was measured by BrdU-ELISA, DMSO refers as a control (see FIG. 2B, 3B, 4B, 5B). The cell proliferation ELISA is a colorimetric alternative to quantitate cell proliferation based on the measurement of BrdU incorporation during DNA synthesis in proliferating cells. After its incorporation into DNA, BrdU is detected by immunoassay by using antibodies being highly specific for BrdU. First, HCFs and/or HL-1 cells are cultured together with various dilutions of test substances (e.g. mitogens, growth factors, cytokines and test compounds such as Bufalin, Gitoxigenin, Lycorine and Anisomycin as mentioned above etc.) in a 96-well in a final volume of 100 μl/well in a humified atmosphere of 37° C. Afterwards, 10 μl/well BrdU labeling solution is added to the cells being cultured in 100 μl/well (final concentration: 10 μM BrdU). Then, cells were re-incubated for additional 2 to 24 h at 37° C. Next, labeling solution is removed and 200 μl/well FixDenat is added to the cells and incubated for 30 min at 15 to 25° C. Then, 100 μl/well anti-BrdU-POD working solution is added and incubated for approximately 90 min, after FixDenat is removed. Next, antibody conjugate is removed and wells are washed with 200 μl-300 μl/well Washing solution (PBS, 1×). After the washing solution is removed, 100 μl/well Substrate solution is added and it is incubated again until color development is sufficient for photometric detection. Further, HCFs were treated with said compounds (Lycorine: 5 μM, Bufalin: 1 μM, Gitoxigenin: 1 μM and Anisomycin: 1 μM) for 24 h as indicated again and subjected to FACS analysis after Annexin-7AAD-staining (see FIG. 2C, 3C, 4C, 5C). After the treatment with said compounds, annexin-7AAD-staining starts with inducing apoptosis in HCFs by a desired method, known to the person skilled in the art, a negative control (w/o induction and staining) and a positive control (f. ex. 500 μM H2O2 or 3 μM Staurosporin) is also needed. Then, the medium with HCFs is transferred into a falcon, washed with PBS and trypsinized. Everything is centrifuged for 5 min at 300×g and then the supernatant is aspirated. The pellet is re-suspended in 200 μl Annexin Red/7AAD Working Solution (1:20, 5 μl Annexin Red/7AAD+195 μl 1× Assay Buffer) and transferred into an Easy Cap Eppendorf tube. After incubation of 15 min at 37° C., it is centrifuged at room temperature (RT) for 5 min at 300×g. […] Samples are now ready for acquisition on a flow cytometer (blue and red laser).

CDR1 mRNA = assay type: cell-based, human; conditions: Lycorine 5 μM, others 1 μM, 24 h, vs DMSO
Method: (§1) Expression levels of CDR1 mRNA change independently of miR-671-5p or CDR1as in primary HCFs upon treatment with Bufalin, Gitoxigenin, Lycorine, Anisomycin and Geldanamycin. HCFs were incubated for 24 h with Bufalin (1 μM), Gitoxigenin (1 μM,) Lycorine (5 μM), Anisomycin (1 μM) and Geldanamycin (1 μM) and impact on CDR1 mRNA level (normalized to GAPDH) by the respective compound was validated via qRT-PCR (see FIG. 23).

[2] = Plasma markers of kidney and liver damage, angiotensin II model; assay type: in vivo, mice; conditions: Bufalin 0.5, Gitoxigenin 0.01, Lycorine 4.5, Anisomycin 10 mg/kg i.p. every other day; day 14
Method: HF was induced in mice (Example 3) and Bufalin (0.5 mg/kg), Gitoxigenin (0.01 mg/kg), Lycorine (4.5 mg/kg), and Anisomycin (10 mg/kg) were injected as indicated in Example 3. Fourteen days after the operation, EDTA-plasma samples were drawn (n=2-3 per group) (see FIGS. 26 and 27).

Collagen1a1 = Collagen1a1 protein levels in HCFs, Western Blot; assay type: cell-based, human; conditions: Lycorine 5 μM, Bufalin, Gitoxigenin, Anisomycin 1 μM, 24 h, DMSO control
Method: Additionally, HCFs were treated with said compounds (Lycorine: 5 μM, Bufalin: 1 μM, Gitoxigenin: 1 μM and Anisomycin: 1 μM) for 24 h as indicated again, lysed and analyzed for extracellular matrix component Collagen1a1 protein levels in primary HCFs (normalized to GAPDH) by representative Western Blot, DMSO refers as a control (see FIG. 2D, 3D, 4D, 5D).

circular RNA CDR1as = assay: CDR1as expression in HCFs, qRT-PCR; assay type: cell-based, human; conditions: Lycorine 5 μM, others 1 μM, 24 h, vs DMSO
Method: as §1, with “of” for “of CDR1 mRNA change independently of miR-671-5p or”, “CDR1as are increased” for “CDR1as”, “upregulation of CDR1as” for “impact on CDR1 mRNA level”, “18S rRNA)” for “GAPDH)”, “22).” for “23).”

[3] = test system: primary human cardiac fibroblasts (HCFs); assay: Proliferation of primary human cardiac fibroblasts, BrdU-ELISA; assay type: cell-based; conditions: 24 h; for proliferation of primary HCFs: 0.1, 1, 10 μM (Lycorine 1, 5, 10 μM), DMSO control; for proliferation of HCFs (derivative screen): 10 μM, DMSO solvent control
Method: HCFs were incubated with 0.1 μM, 1 μM and 10 μM Bufalin, Gitoxigenin, Anisomycin and Geldanamycin as well as with 1 μM, 5 μM and 10 μM Lycorine for 24 h and proliferation of HCFs was measured by BrdU-ELISA (see FIG. 1). Due to major drawbacks as a drug candidate, Geldanamycin was not included in the follow-up studies, in particular in the in vivo experiments.
HCFs and HL-1 cells were treated with Bufalin, Gitoxigenin, Lycorine and Anisomycin for 24 h with the same concentrations as indicated in Example 1 and proliferation of HCFs and cardiomyocyte cell line HL-1 cells was measured by BrdU-ELISA, DMSO refers as a control (see FIG. 2B, 3B, 4B, 5B). The cell proliferation ELISA is a colorimetric alternative to quantitate cell proliferation based on the measurement of BrdU incorporation during DNA synthesis in proliferating cells. After its incorporation into DNA, BrdU is detected by immunoassay by using antibodies being highly specific for BrdU. First, HCFs and/or HL-1 cells are cultured together with various dilutions of test substances (e.g. mitogens, growth factors, cytokines and test compounds such as Bufalin, Gitoxigenin, Lycorine and Anisomycin as mentioned above etc.) in a 96-well in a final volume of 100 μl/well in a humified atmosphere of 37° C. Afterwards, 10 μl/well BrdU labeling solution is added to the cells being cultured in 100 μl/well (final concentration: 10 μM BrdU). Then, cells were re-incubated for additional 2 to 24 h at 37° C. Next, labeling solution is removed and 200 μl/well FixDenat is added to the cells and incubated for 30 min at 15 to 25° C. Then, 100 μl/well anti-BrdU-POD working solution is added and incubated for approximately 90 min, after FixDenat is removed. Next, antibody conjugate is removed and wells are washed with 200 μl-300 μl/well Washing solution (PBS, 1×). After the washing solution is removed, 100 μl/well Substrate solution is added and it is incubated again until color development is sufficient for photometric detection. Further, HCFs were treated with said compounds (Lycorine: 5 μM, Bufalin: 1 μM, Gitoxigenin: 1 μM and Anisomycin: 1 μM) for 24 h as indicated again and subjected to FACS analysis after Annexin-7AAD-staining (see FIG. 2C, 3C, 4C, 5C). After the treatment with said compounds, annexin-7AAD-staining starts with inducing apoptosis in HCFs by a desired method, known to the person skilled in the art, a negative control (w/o induction and staining) and a positive control (f. ex. 500 μM H2O2 or 3 μM Staurosporin) is also needed. Then, the medium with HCFs is transferred into a falcon, washed with PBS and trypsinized. Everything is centrifuged for 5 min at 300×g and then the supernatant is aspirated. The pellet is re-suspended in 200 μl Annexin Red/7AAD Working Solution (1:20, 5 μl Annexin Red/7AAD+195 μl 1× Assay Buffer) and transferred into an Easy Cap Eppendorf tube. After incubation of 15 min at 37° C., it is centrifuged at room temperature (RT) for 5 min at 300×g. Then, the supernatant is aspirated, the pellet washed once with 200 μl 1× Assay Buffer and centrifuged again at RT for 5 min at 300×g. Again, the supernatant is aspirated and the pellet is re-suspended in 200 μl Annexin Red/7AAD working solution and incubated again at RT for 5 min in the dark. Samples are now ready for acquisition on a flow cytometer (blue and red laser).
The cells were incubated for 24 h with 10 μM Bufalin and Lycorine and with 10 μM derivatives of Bufalin (derivatives 3, 5, 6, 7, 8, 9, 10, 11, 12, 13, 14, 16, 17, 18 and 25) and Lycorine (derivative 1, 2, 4, 15, 19, 20, 21, 22, 23, 24 and 26). Then, proliferation of HCFs was measured by BrdU-ELISA (see FIG. 31).

Compound | proliferation of the cardiomyocyte cell line HL-1 [1] | expression levels of CDR1 mRNA (normalized to GAPDH) (CDR1 mRNA) | plasma marker of kidney and liver damage (GOT, GPT, creatinine, urea) [2] | expression levels of Collagen1a1 (normalized to GAPDH) (Collagen1a1) | expression levels of CDR1as (normalized to 18S rRNA) (circular RNA CDR1as) | proliferation of primary HCFs [3] | proliferation of HCFs (derivative screen) [3]
COc1ccc(C[C@H]2NC[C@H](O)[C@H]2OC(C)=O)cc1 [Anisomycin] | no impact | decrease | no elevation | decreases expression levels | increase | Dose-dependent inhibitory effects | 
C[C@]12CC[C@H](O)C[C@H]1CC[C@@H]1[C@@H]2CC[C@]2(C)[C@@H](c3ccc(=O)oc3)CC[C@]12O [Bufalin] | no impact | decrease | no elevation | decreases expression levels | increase | Dose-dependent inhibitory effects | proliferation is prevented
C[C@]12CC[C@H](O)C[C@H]1CC[C@@H]1[C@@H]2CC[C@]2(C)[C@@H](C3=CC(=O)OC3)[C@@H](O)C[C@]12O [Gitoxigenin] | no impact | decrease | no elevation | decreases expression levels | increase | Dose-dependent inhibitory effects | 
O[C@H]1[C@H]2c3cc4c(cc3CN3CCC(=C[C@@H]1O)[C@H]23)OCO4 [Lycorine] | no impact | decrease | no elevation | decreases expression levels | increase | Dose-dependent inhibitory effects | proliferation is prevented

Reference: US11185539B2 (priority 2017, dated 2021)
